Earlier results in patent publication US9056899B2 (priority 2008, dated 2015).
≈ marks a conversion by molar mass, not a printed value. Read-outs that look alike come from different tables or passages of the source.

What was measured:
Conditions in all cases: cited from earlier work
[1] = test system: BW25113 and gene knockouts
[2] = test system: BW25113 and gene knockouts; remark: listed apart in the source
[3] = test system: BW25113 and gene knockouts from KEIO collection
[4] = test system: BW25113 and gene knockouts from KEIO collection; remark: listed apart in the source

CC1(C)S[C@@H]2[C@H](NC(=O)[C@H](N)c3ccccc3)C(=O)N2[C@H]1C(=O)O [Ampicillin]
MIC E test ([1]; BW25113 starting strain): 5.0 µg/mL (≈ 14.3 µM) | MIC E test [1]: 1.5 µg/mL (≈ 4.29 µM) | MIC E test ([1]; dacA knockout): 1.5 µg/mL (≈ 4.29 µM) | MIC E test ([1]; dapF knockout): 2.0 µg/mL (≈ 5.72 µM) | MIC E test ([1]; pal knockout): 2.0 µg/mL (≈ 5.72 µM) | MIC E test ([1]; rplA knockout): 2.0 µg/mL (≈ 5.72 µM) | MIC E test ([1]; tatC knockout): 3.0 µg/mL (≈ 8.59 µM) | MIC E test ([1]; tolC knockout): 1.0 µg/mL (≈ 2.86 µM) | MIC Plating ([2]; BW25113 starting strain): 6.0 µg/mL (≈ 17.2 µM) | MIC Plating ([2]; JW5115 knockout): 2.0 µg/mL (≈ 5.72 µM) | MIC Plating ([2]; acrA knockout): 1.5 µg/mL (≈ 4.29 µM) | MIC Plating ([2]; acrB knockout): 2.0 µg/mL (≈ 5.72 µM) | MIC Plating ([2]; atpA knockout): 2.5 µg/mL (≈ 7.15 µM) | MIC Plating [2]: 1.5 µg/mL (≈ 4.29 µM) | MIC Plating ([2]; dacA knockout): 1.5 µg/mL (≈ 4.29 µM) | MIC Plating ([2]; dapF knockout): 1.0 µg/mL (≈ 2.86 µM) | MIC Plating ([2]; dcd knockout): 2.5 µg/mL (≈ 7.15 µM) | MIC Plating ([2]; ddlB knockout): 1.0 µg/mL (≈ 2.86 µM) | MIC Plating ([2]; dedD knockout): 2.0 µg/mL (≈ 5.72 µM) | MIC Plating ([2]; deoT knockout): 2.0 µg/mL (≈ 5.72 µM) | MIC Plating ([2]; dksA knockout): 2.0 µg/mL (≈ 5.72 µM) | MIC Plating ([2]; emtA knockout): 2.0 µg/mL (≈ 5.72 µM) | MIC Plating ([2]; envC knockout): 1.5 µg/mL (≈ 4.29 µM) | MIC Plating ([2]; fkpB knockout): 2.5 µg/mL (≈ 7.15 µM) | MIC Plating ([2]; gpmM knockout): 1.5 µg/mL (≈ 4.29 µM) | MIC Plating ([2]; hscA knockout): 2.0 µg/mL (≈ 5.72 µM) | MIC Plating ([2]; hscB knockout): 2.5 µg/mL (≈ 7.15 µM) | MIC Plating ([2]; lptB knockout): 2.0 µg/mL (≈ 5.72 µM) | MIC Plating ([2]; mrcB knockout): 2.0 µg/mL (≈ 5.72 µM) | MIC Plating ([2]; pal knockout): 1.5 µg/mL (≈ 4.29 µM) | MIC Plating ([2]; pgmB knockout): 1.5 µg/mL (≈ 4.29 µM) | MIC Plating ([2]; phoP knockout): 2.0 µg/mL (≈ 5.72 µM) | MIC Plating ([2]; qmcA knockout): 2.5 µg/mL (≈ 7.15 µM) | MIC Plating ([2]; rimK knockout): 2.0 µg/mL (≈ 5.72 µM) | MIC Plating ([2]; rplA knockout): 2.0 µg/mL (≈ 5.72 µM) | MIC Plating ([2]; rpmF knockout): 1.5 µg/mL (≈ 4.29 µM) | MIC Plating ([2]; rpsF knockout): 2.0 µg/mL (≈ 5.72 µM) | MIC Plating ([2]; rrmJ knockout): 1.5 µg/mL (≈ 4.29 µM) | MIC Plating ([2]; skp knockout): 2.0 µg/mL (≈ 5.72 µM) | MIC Plating ([2]; sufI knockout): 2.0 µg/mL (≈ 5.72 µM) | MIC Plating ([2]; surA knockout): 2.0 µg/mL (≈ 5.72 µM) | MIC Plating ([2]; tatC knockout): 2.0 µg/mL (≈ 5.72 µM) | MIC Plating ([2]; tolC knockout): 2.0 µg/mL (≈ 5.72 µM) | MIC Plating ([2]; tolR knockout): 2.0 µg/mL (≈ 5.72 µM) | MIC Plating ([2]; ubiG knockout): 2.0 µg/mL (≈ 5.72 µM) | MIC Plating ([2]; xapR knockout): 1.5 µg/mL (≈ 4.29 µM) | MIC Plating ([2]; ybeD knockout): 2.0 µg/mL (≈ 5.72 µM) | MIC Plating ([2]; ybeY knockout): 2.0 µg/mL (≈ 5.72 µM) | MIC Plating ([2]; ybgF knockout): 1.5 µg/mL (≈ 4.29 µM) | MIC Plating ([2]; ybhT knockout): 2.0 µg/mL (≈ 5.72 µM) | MIC Plating ([2]; yciM knockout): 1.5 µg/mL (≈ 4.29 µM) | MIC Plating ([2]; yfgC knockout): 1.5 µg/mL (≈ 4.29 µM) | MIC Plating ([2]; yfgL knockout): 2.0 µg/mL (≈ 5.72 µM) | MIC Plating ([2]; ygcO knockout): 2.0 µg/mL (≈ 5.72 µM) | MIC Plating ([2]; yjjY knockout): 1.5 µg/mL (≈ 4.29 µM)

O=C(O)c1cn(C2CC2)c2cc(N3CCNCC3)c(F)cc2c1=O [Ciprofloxacin]
MIC Plating ([3]; BW25113 starting strain): 0.02 µg/mL (≈ 0.0604 µM) | MIC Plating ([3]; acrA knockout): 0.0075 µg/mL (≈ 0.0226 µM) | MIC Plating ([3]; acrB knockout): 0.008 µg/mL (≈ 0.0241 µM) | MIC Plating ([3]; deoT knockout): 0.0075 µg/mL (≈ 0.0226 µM) | MIC Plating ([3]; dksA knockout): 0.01 µg/mL (≈ 0.0302 µM) | MIC Plating ([3]; fis knockout): >0.00875 µg/mL | MIC Plating ([3]; hfq knockout): 0.0075 µg/mL (≈ 0.0226 µM) | MIC Plating ([3]; hrpA knockout): 0.00875 µg/mL (≈ 0.0264 µM) | MIC Plating ([3]; ihfA knockout): 0.0075 µg/mL (≈ 0.0226 µM) | MIC Plating ([3]; pgmB knockout): 0.01 µg/mL (≈ 0.0302 µM) | MIC Plating ([3]; qmcA knockout): >0.00875 µg/mL | MIC Plating ([3]; recA knockout): >0.00875 µg/mL | MIC Plating ([3]; recB knockout): 0.0075 µg/mL (≈ 0.0226 µM) | MIC Plating ([3]; recC knockout): >0.00875 µg/mL | MIC Plating ([3]; recG knockout): 0.006 µg/mL (≈ 0.0181 µM) | MIC Plating ([3]; recN knockout): 0.01 µg/mL (≈ 0.0302 µM) | MIC Plating ([3]; rimK knockout): >0.00875 µg/mL | MIC Plating ([3]; rseA knockout): >0.00875 µg/mL | MIC Plating ([3]; ruvA knockout): 0.01 µg/mL (≈ 0.0302 µM) | MIC Plating ([3]; ruvC knockout): >0.00875 µg/mL | MIC Plating ([3]; tolC knockout): 0.005 µg/mL (≈ 0.0151 µM) | MIC Plating ([3]; uvrD knockout): 0.006 µg/mL (≈ 0.0181 µM) | MIC Plating ([3]; xseA knockout): 0.006 µg/mL (≈ 0.0181 µM) | MIC Plating ([3]; xseB knockout): 0.008 µg/mL (≈ 0.0241 µM) | MIC Plating ([3]; ybgC knockout): 0.0075 µg/mL (≈ 0.0226 µM) | MIC Plating ([3]; ybgF knockout): 0.0075 µg/mL (≈ 0.0226 µM) | MIC Plating ([3]; ychJ knockout): 0.0075 µg/mL (≈ 0.0226 µM) | MIC Plating ([3]; yciM knockout): 0.0075 µg/mL (≈ 0.0226 µM) | MIC Plating ([3]; ygcO knockout): 0.0075 µg/mL (≈ 0.0226 µM) | MIC Plating ([3]; yjjY knockout): 0.00875 µg/mL (≈ 0.0264 µM) | MIC E-Test ([4]; BW25113 starting strain): 0.016 µg/mL (≈ 0.0483 µM) | MIC E-Test ([4]; fis knockout): 0.006 µg/mL (≈ 0.0181 µM) | MIC E-Test ([4]; recA knockout): 0.002 µg/mL (≈ 0.00604 µM) | MIC E-Test ([4]; recC knockout): 0.008 µg/mL (≈ 0.0241 µM) | MIC E-Test ([4]; recG knockout): 0.006 µg/mL (≈ 0.0181 µM) | MIC E-Test ([4]; ruvC knockout): 0.008 µg/mL (≈ 0.0241 µM) | MIC E-Test ([4]; tolC knockout): 0.004 µg/mL (≈ 0.0121 µM) | MIC E-Test ([4]; uvrD knockout): 0.005 µg/mL (≈ 0.0151 µM) | MIC E-Test ([4]; xseA knockout): 0.006 µg/mL (≈ 0.0181 µM)
